Test results published in patent US20250034211A1, “C-TERMINAL EXTENDED P53 ACTIVATOR CROSSLINKED PEPTIDOMIMETIC MACROCYCLES AGAINST MDM2/MDMX” (Merck Sharp & Dohme LLC, priority 2021, published 2025).
Converted amounts (≈) assume the structure as drawn. Read-outs that look alike come from different tables or passages of the source. Where a SMILES comes first, the peptide text is derived from it. Bridges are numbered along the chain shown (N, C = ends). [ ]: non-standard residue; d: D form. Lys(N3) = [N-]=[N+]=NCCCC[C@H](N)C(=O)O; Gla = N[C@@H](CC(C(=O)O)C(=O)O)C(=O)O; R8 = C=CCCCCCC[C@@](C)(N)C(=O)O; Cba = N[C@@H](CC1CCC1)C(=O)O; S5 = C=CCCC[C@](C)(N)C(=O)O; Aib = CC(C)(N)C(=O)O; βAla = NCCC(=O)O

Columns and labels:
[1] = test system: Jump-In T-REx CHO-K1 BLA cells; assay: Tetracycline beta-lactamase reporter gene assay (counter screen); type: cell-based
Method: Based on Jump-In™ T-REx™ CHO-K1 BLA cells and contain a stably integrated β-lactamase under the control of an inducible CMV promoter. Cells were seeded into a 384-well plate a density of 4000 cells per well. Cells were maintained in Dulbecco's Minimal Eagle Medium (DMEM) with 10% fetal bovine serum (FBS), Blasticidin and Penicillin/Streptomycin. The cells were incubated for 24 hours, followed by cell media removal and replacement with Opti-MEM either containing 10% FBS or 0% FBS. Peptides were then dispensed to each well using a liquid handler, ECHO 555 and incubated for 4/16 hours. Final working concentration of DMSO was 0.5%. β-Lactamase activity was detected using the ToxBLAzer Dual Screen (Invitrogen) as per manufacturer's instructions. Measurements were carried out using Envision multiplate reader (Perkin Elmer). Counter Screen activity was defined as the amount of 0-lactamase activity induced by tetracycline.

HCT116 cells = assay: Lactate dehydrogenase release assay (LDH); type: cell-based
Method: HCT116 cells were seeded into a 384-well plate at a density of 8000 cells per well. Cells were maintained in McCoy's 5A Medium with 10% fetal bovine serum (FBS), Blasticidin and Penicillin/Streptomycin. The cells were incubated overnight followed by the removal of cell media and the addition of Opti-MEM Medium without FBS. Cells were then treated with peptides for 4/16 hours in Opti-MEM either in 10% FBS or serum free. Final concentration of DMSO was 0.5%. Lactate dehydrogenase release was detected using CytoTox-ONE Homogenous Membrane Integrity Assay Kit (Promega) as per manufacturer's instructions. Measurements were carried out using Tecan plate reader. Maximum LDH release was defined as the amount of LDH released induced by the lytic peptide (iDNA79) and used to normalize the results.

[2] = molecular target: T1, MDM2 (1-125; SEQ ID NO 14) (Homo sapiens, UniProt Q00987); assay: MDM2 binding assay (fluorescence anisotropy competition, FP)
T1 construct: GST (N); His6 (internal); TEV cleavage site ENLYFQG (internal); made in house; host or cells: E. coli BL21 (DE3) Rosetta T1R
T1 sequence (Q00987 with tags, fused parts or gaps): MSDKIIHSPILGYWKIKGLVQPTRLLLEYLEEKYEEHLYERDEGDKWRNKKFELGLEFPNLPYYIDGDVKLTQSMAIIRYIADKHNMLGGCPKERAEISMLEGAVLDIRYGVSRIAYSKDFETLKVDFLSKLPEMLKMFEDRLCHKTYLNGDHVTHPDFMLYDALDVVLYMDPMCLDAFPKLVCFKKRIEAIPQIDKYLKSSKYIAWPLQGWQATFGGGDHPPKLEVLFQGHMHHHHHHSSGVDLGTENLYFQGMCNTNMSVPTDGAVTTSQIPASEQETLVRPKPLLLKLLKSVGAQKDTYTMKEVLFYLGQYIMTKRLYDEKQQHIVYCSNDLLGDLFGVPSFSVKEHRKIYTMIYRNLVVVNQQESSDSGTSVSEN
Method: [P] is the protein concentration (MDM2), [L] is the labeled peptide concentration, r is the anisotropy measured, r0 is the anisotropy of the free peptide, rb is the anisotropy of the MDM2-FAM-labeled peptide complex, Kd is the dissociation constant, [L]t is the total FAM labeled peptide concentration, and [P]t is the total MDM2 concentration. […] The competing molecules were then titrated against the complex of the FAM-labeled peptide and protein. Apparent Kd values were determined by fitting the experimental data to the equations shown below:
[L]st and [L]t denote labeled ligand and total unlabeled ligand input concentrations, respectively. Kd2 is the dissociation constant of the interaction between the unlabeled ligand and the protein. In all competition experiments, it is assumed that [P]t>[L]st, otherwise considerable amounts of free labeled ligand would always be present and would interfere with measurements. […] The FAM-labeled peptide was dissolved in dimethyl sulfoxide (DMSO) at 1 mM and diluted into experimental buffer. Readings were carried out with an Envision Multilabel Reader (PerkinElmer). […] All titrations were carried out in triplicate. Curve-fitting was carried out using Prism 4.0 (GraphPad). […] Negative control titrations of the ligands under investigation were also carried out with the fluorescently labeled peptide (in the absence of MDM2) to ensure no interactions were occurring between the ligands and the FAM-labeled peptide.

[3] = Circular dichroism (CD) helicity; type: physicochemical
Method: The dried peptide was reconstituted in a buffer containing 1 mM HEPES pH 7.4 and 5% methanol to a concentration of 1 mM. The peptide sample was placed in a quartz cuvette with a path length of 0.2 cm and a CD spectrum was recorded from 300 to 190 nm at 25° C. using the Chirascan-plus qCD machine (Applied Photophysics). The actual concentration of the peptide was determined by the absorbance of the peptide at […]. An estimate of the secondary structure components of the peptide was carried out by converting the CD spectrum to mean residue ellipticity before deconvoluting using the CDNN software (distributed by Applied Photophysics). All experiments were done in duplicate.

p53 null Ca Ski = conditions: for % inhibition at maximum concentration in p53 null negative control cell line: maximum assay concentration (50 uM); for p53 null Ca Ski proliferation % Max: 72 h, 10% serum
Solubility (PBS, pH 7) = conditions: for solubility: PBS, pH 7
[4] = test system: p53 (HCT116 cells stably transfected with a p53 responsive β-lactamase reporter); assay: p53 beta-lactamase reporter gene cellular functional assay; type: cell-based
Method: HCT116 cells were stably transfected with a p53 responsive β-lactamase reporter, and were seeded into a 384-well plate at a density of 8,000 cells per well. Cells were maintained in McCoy's 5A Medium with 10% fetal bovine serum ([…]), Blasticidin and Penicillin/Streptomycin. The cells were incubated overnight and followed by removal of cell growth media and replaced with Opti-MEM either containing 0% FBS or 10% FBS. Peptides were then dispensed to each well using a liquid handler, ECHO 555 and incubated for 4/16 hours. Final working concentration of dimethyl sulfoxide (DMSO) was 0.5%. β-Lactamase activity was detected using the ToxBLAzer Dual Screen (Invitrogen) as per manufacturer's instructions. Measurements were done using Envision multiplate reader (Perkin-Elmer). Maximum p53 activity was defined as the amount of β-lactamase activity induced by 50 μM azide-ATSP-7041 (stapled p53 peptide; Aileron Therapeutics, Inc.). This was determined as the highest amount of p53 activity induced by azide-ATSP-7041 by titration on HCT116 cells.

SMILES	EC50 ([1]; 0% FBS, 4 h) [µM]	EC50 ([1]; 10% FBS, 16 h) [µM]	EC50 (HCT116 cells; 0% FBS, 4 h) [µM]	EC50 (HCT116 cells; 10% FBS, 16 h) [µM]	Kd [2] [µM]	CD (% helicity) [3] [%]	logD (HPLC LogD)	% inhibition at maximum concentration in p53 null negative control cell line (p53 null Ca Ski) [%]	solubility (in words) (Solubility (PBS, pH 7))	solubility (Solubility (PBS, pH 7)) [µM]	HCT116 proliferation % Max (HCT116; 72 h, 10% serum) [%]	fold improvement in HTC116 cell proliferation assay (HCT116; as compared to Macrocycle 3)	EC50 (HCT116; read-out: HCT116 proliferation EC50, 72 h, 10% serum) [µM]	chromatographic logD (HPLC LogD)	EC50 ([4]; 10% serum at 16 hours) [µM]	p53 null Ca Ski proliferation % Max (p53 null Ca Ski) [%]	EC50 (HCT116; read-out: cellular efficacy in cell proliferation HTC116 p53 positive control cell lines) [µM]	EC50 (p53 null Ca Ski; read-out: EC50 in p53 null negative control cell line) [µM]	EC50 ([4]; 0% serum at 4 hours) [µM]
CC(=O)N[C@@H](CCCCN=[N+]=[N-])C(=O)NCCC(=O)N[C@@H](CC(C)C)C(=O)N[C@H](C(=O)N[C@@H](Cc1ccccc1)C(=O)N[C@]1(C)CCCCCCC=CCCC[C@@](C)(C(=O)N[C@@H](C)C(=O)N[C@@H](C)C(=O)N[C@@H](Cc2ccccc2)C(=O)NC(C)(C)C(=O)N[C@@H](C)C(=O)N[C@@H](C)C(N)=O)NC(=O)[C@H](CC2CCC2)NC(=O)[C@H](CCC(N)=O)NC(=O)[C@H](C)NC(=O)[C@H](Cc2c[nH]c3ccccc23)NC(=O)[C@H](Cc2ccc(O)cc2)NC(=O)[C@H](CCC(=O)O)NC1=O)[C@@H](C)O [Macrocycle 8, Ac-K(N3)-betaAla-L-T-F-X1a-E-Y-W-A-Q-Cba-X2a-AAF-Aib-AA-NH2(olefinstaple from X1ato X2a)] (Ac-[Lys(N3)][βAla]LTF[R8]EYWAQ[Cba][S5]AAF[Aib]AA-NH2; staple 6-13)	> 50	> 50	16.7	> 50	0.0074	35	–	–	–	–	–	–	–	–	–	–	–	–	–
CC(=O)N[C@@H](CCCCN=[N+]=[N-])C(=O)NCCC(=O)N[C@@H](CC(C)C)C(=O)N[C@H](C(=O)N[C@@H](Cc1ccccc1)C(=O)N[C@]1(C)CCCCCCC=CCCC[C@@](C)(C(=O)N[C@@H](C)C(=O)N[C@@H](C)C(=O)N[C@@H](CCC(=O)O)C(=O)N[C@@H](C)C(=O)N[C@@H](C)C(=O)N[C@H](C)C(N)=O)NC(=O)[C@H](CC2CCC2)NC(=O)[C@H](CCC(N)=O)NC(=O)[C@H](C)NC(=O)[C@H](Cc2c[nH]c3ccccc23)NC(=O)[C@H](Cc2ccc(O)cc2)NC(=O)[C@H](CCC(=O)O)NC1=O)[C@@H](C)O [Macrocycle 10, Ac-K(N3)-betaAla-L-T-F-X1a-E-Y-W-A-Q-Cba-X2a-AAEAA-(D-Ala)-NH2(olefinstaple from X1ato X2a)] (Ac-[Lys(N3)][βAla]LTF[R8]EYWAQ[Cba][S5]AAEAA[dA]-NH2; staple 6-13)	–	–	> 50	> 50	0.0031	–	2.14	−18	excellent solubility	154 (≈ 343 µg/mL)	–	–	–	–	–	–	–	–	–
CC(=O)N[C@@H](CCCCN=[N+]=[N-])C(=O)NCCC(=O)N[C@@H](CC(C)C)C(=O)N[C@H](C(=O)N[C@@H](Cc1ccccc1)C(=O)N[C@]1(C)CCCCCCC=CCCC[C@@](C)(C(=O)N[C@@H](CC(C(=O)O)C(=O)O)C(=O)N[C@@H](C)C(=O)N[C@@H](C)C(=O)N[C@@H](C)C(=O)N[C@@H](C)C(=O)N[C@@H](C)C(N)=O)NC(=O)[C@H](CC2CCC2)NC(=O)[C@H](CCC(N)=O)NC(=O)[C@H](C)NC(=O)[C@H](Cc2c[nH]c3ccccc23)NC(=O)[C@H](Cc2ccc(O)cc2)NC(=O)[C@H](CCC(=O)O)NC1=O)[C@@H](C)O [Macrocycle 11, Ac-K(N3)-betaAla-L-T-F-X1a-E-Y-W-A-Q-Cba-X2a-(Gla)AAAAA-NH2(olefinstaple from X1ato X2a)] (Ac-[Lys(N3)][βAla]LTF[R8]EYWAQ[Cba][S5][Gla]AAAAA-NH2; staple 6-13)	> 50	> 50	> 50	> 50	0.00032	–	–	−18	excellent solubility	163 (≈ 370 µg/mL)	73	at least 2 fold	0.79	2.25	0.527	−18	–	–	–
CC(=O)N[C@@H](CCCCN=[N+]=[N-])C(=O)NCCC(=O)N[C@@H](CC(C)C)C(=O)N[C@H](C(=O)N[C@@H](Cc1ccccc1)C(=O)N[C@]1(C)CCCCC#CC#CCCC[C@@](C)(C(=O)N[C@@H](C)C(=O)N[C@@H](C)C(=O)N[C@@H](C)C(=O)N[C@@H](C)C(=O)N[C@@H](C)C(=O)N[C@@H](C)C(N)=O)NC(=O)[C@H](CC2CCC2)NC(=O)[C@H](CCC(N)=O)NC(=O)[C@H](C)NC(=O)[C@H](Cc2c[nH]c3ccccc23)NC(=O)[C@H](Cc2ccc(O)cc2)NC(=O)[C@H](CCC(=O)O)NC1=O)[C@@H](C)O [Macrocycle 12, Ac-K(N3)-betaAla-L-T-F-X1b-E-Y-W-A-Q-Cba-X2b-AAAAAA-NH2 (di-alkyne staple from X1b to X2b)]	> 50	> 50	> 50	> 50	–	–	–	3	–	–	72	–	–	2.69	–	3	0.124	> 50	–
CC(=O)N[C@@H](CCCCN=[N+]=[N-])C(=O)NCCC(=O)N[C@@H](CC(C)C)C(=O)N[C@H](C(=O)N[C@@H](Cc1ccccc1)C(=O)N[C@]1(C)CCCCCCC=CCCC[C@@](C)(C(=O)N[C@@H](C)C(=O)N[C@@H](C)C(=O)N[C@@H](C)C(N)=O)NC(=O)[C@H](CC2CCC2)NC(=O)[C@H](CCC(N)=O)NC(=O)[C@H](C)NC(=O)[C@H](Cc2c[nH]c3ccccc23)NC(=O)[C@H](Cc2ccc(O)cc2)NC(=O)[C@H](CCC(=O)O)NC1=O)[C@@H](C)O [Reference Macrocycle 1, Ac-K(N3)-betaAla-L-T-F-X1a-E-Y-W-A-Q-Cba-X2a-AAA-NH2 (olefin staple from X1a to X2a), reference compound] (Ac-[Lys(N3)][βAla]LTF[R8]EYWAQ[Cba][S5]AAA-NH2; staple 6-13)	> 50	–	> 50	–	0.036	–	2.93	–	–	108 (≈ 211 µg/mL)	–	–	–	–	0.847	–	–	–	0.339
